Source: patent US7390783B2, “Charged phospholipid compositions and methods for their use” (Ottawa Heart Institute Research Corporation, priority 2000, dated 2008)

How the values were obtained:
[1] = system: cholesterol associated with HDL, LDL and VLDL; experiment: Incubation of plasma with PI: lipoprotein cholesterol levels; assay type: biochemical, human; conditions: added to blood plasma of fasted normolipidemic subject
Method: Referring now to FIG. 2, there is graphically depicted the effect of incubations with PI on the amount of cholesterol associated with HDL (high density lipoprotein), LDL (low density lipoprotein) and VLDL (very low density lipoproteins) following isolation of lipoproteins from plasma of fasted normolipidemic subjects. […] This appears due to the electrostatic effects, that increased lipoprotein PI concentrations have on cholesteryl ester transfer protein. Previous work has shown that this protein controls interlipoprotein cholesterol transfers and is affected by lipoprotein charge (Lagrost 1997).

[2] = system: [^3H]-FC in plasma; experiment: Clearance of [^3H]-FC from the blood of a rabbit; assay type: in vivo
Method: 1-palmitoyl-2-oleoyl-phosphatidylcholine (PC) and 1-palmitoyl-2-oleoyl phosphatidylinositol (PI) vesicles are prepared by drying to completion 40 μmol of each lipid into a 12×75 mm culture tube under N2. The lipids are solubilized in 3 mL of sterile saline comprising 150 mM sodium chloride (pH 7.2) by sonication for 1 minute at constant duty cycle. The vesicles are incubated at 37° C. for 10 minutes and then sonicated at a high output for 4 minutes in 10° C. water bath under N2. In order to determine the rate of clearance of cholesterol from the test animals (rabbits), a radioactive tracer is added to the vesicle preparations prior to injection into the rabbit. 200 μL of 1 μCi/μmL [^3H]-FC is dried into a 12×75 mm culture tube with 40 μmol of PI or POPC. 3 ml of PBS is added to the dried lipids and the mixture is sonicated as described above. This tracer/vesicle preparation is injected and then 5 min later, the PI or PC vesicles were injected and blood is sampled as described below.
Male New Zealand white rabbits (3.5-4.0 kg) are fasted for 12 hours prior to injection and remain fasted until after data for the final time point is taken. Rabbits have free access to water during this time. A catheter is inserted into the marginal ear vein and blood samples are collected into tubes containing 7.5% (K3) EDTA solution at the desired time points. A pre-injection blood sample is taken and the vesicle solution of either PI (n=4), or PC (n=2) or saline (n=1) is injected into the marginal ear vein. A sample of blood is removed at 10, 30 min, 1, 3, 6 and 24 h after the injection. All blood samples are placed on ice and then centrifuged at 3000 rpm for 15 min at 4° C. to separate the plasma. In order to ensure that lecithin:cholesterol acyl transferase (LCAT) is inhibited in the stored plasma, iodoacetamide (150 mM) is added to plasma samples as taught by Guerin et al. (1994).
Referring now to FIG. 5, there is shown the clearance of [^3H]-FC at various times after rabbits are injected with [^3H]-FC and either PI or PC vesicles. […] In comparison, rabbits injected with PC contain approximately 90% of the injected radioactivity after 1 h.

[3] = biological target: T1, lipoprotein lipase (Homo sapiens, UniProt P06858); experiment: Lipid hydrolysis by lipoprotein lipase in plasma enriched with charged lipid; assay type: biochemical; conditions: not shown
T1 sequence (P06858 28-475): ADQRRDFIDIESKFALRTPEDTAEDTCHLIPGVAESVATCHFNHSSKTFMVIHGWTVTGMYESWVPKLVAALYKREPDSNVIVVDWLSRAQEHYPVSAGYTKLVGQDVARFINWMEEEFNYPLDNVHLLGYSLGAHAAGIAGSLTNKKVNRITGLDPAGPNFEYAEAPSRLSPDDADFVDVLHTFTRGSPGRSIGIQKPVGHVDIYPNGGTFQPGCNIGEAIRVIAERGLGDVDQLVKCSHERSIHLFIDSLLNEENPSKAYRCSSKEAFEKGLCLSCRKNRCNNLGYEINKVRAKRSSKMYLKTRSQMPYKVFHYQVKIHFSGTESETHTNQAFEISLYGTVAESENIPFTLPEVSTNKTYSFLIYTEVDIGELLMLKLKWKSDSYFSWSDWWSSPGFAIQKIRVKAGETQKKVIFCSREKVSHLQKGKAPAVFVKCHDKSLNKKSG
Excerpt: Referring now to FIG. 10, there is shown the effect of lipoprotein charge on hepatic lipase. High density lipoprotein particles were enriched to contain various amounts of anionic or cationic lipids and then characterized as substrates for pure human hepatic lipase. Decreasing the net negative charge on the lipoprotein was associated with a reduction in the lipolytic activity of is hepatic lipase. Lipoprotein charge can also be used to regulate lipoprotein lipase. […] Lipid hydrolysis by hepatic or lipoprotein lipase can therefore be affected by alterations in the charge properties of plasma lipoproteins.

[4] = system: Human plasma; experiment: Plasma clotting time (prothrombin time); assay type: biochemical; conditions: human plasma incubated with increasing amounts of vesicles, 24 h at 4° C.
Method: Referring now to FIG. 11, there is shown the effect of charged lipid on blood coagulation. Human plasma was incubated with various amounts of uncharged vesicles, phosphatidylcholine (PC) or anionic vesicles, phosphatidylinositol (PI), for 24 h at 4° C. Prothrombin time was then measured with the use of a commercially available kit.

[5] = system: cytomegalovirus (CMV); experiment: Clearance of cytomegalovirus from the plasma of a rabbit; assay type: in vivo; conditions: 36 mg vesicles; blood sample 10 minutes post injection
Method: Rabbits were injected with 8×10^10 cytomegalovirus (CMV) particles and then with 36 mg of either uncharged vesicles, phosphatidylcholine (PC), or anionic vesicles, phosphatidylinositol (PI). Blood samples were taken at specific intervals and the amount of virus in the blood samples was determined by immunometric analysis.

[6] = system: VLDL, LDL and HDL in human plasma; experiment: Lipoprotein charge in human plasma incubated with PI or DOTAP vesicles; assay type: biochemical; conditions: 24 h at 4° C.; for Lipoprotein Surface Charge LDL: no lipid 2.5; for Lipoprotein Surface Charge VLDL: no lipid 5.5; for Lipoprotein Surface Charge HDL: no lipid 11.8
Method: Different concentrations as shown below of negatively charged phospholipid (PI) or positively charged phospholipid (DOTAP) were added to human plasma and the surface charge on the lipoproteins was determined. The human plasma was incubated with PI or dioleoyl trimethylammonium-propane (DOTAP) vesicles for 24 h at 4° C. and then electrophoresed on 0.5% agarose. Lipoprotein charge was calculated from electrokinetic analyses.

effect on lipid hydrolysis by lipoprotein lipase [3]: stimulate lipid hydrolysis
Compound: CCCCCCCC/C=C\CCCCCCCC(=O)O[C@H](COC(=O)CCCCCCCCCCCCCCC)COP(=O)(O)O[C@@H]1[C@H](O)[C@H](O)[C@@H](O)[C@H](O)[C@H]1O [PI, 1-palmitoyl-2-oleoyl phosphatidylinositol]
effect on cholesterol in LDL, VLDL and HDL [1]: reduction of cholesterol in LDL and VLDL and increase in HDL cholesterol levels
[^3H]-FC in plasma, of the initial dose ([2]; after about 1 h): about 15%
half-life of [^3H]-FC shorter than for PC injected rabbits ([2]; rabbit, in vivo): about 30 fold
effect on plasma clotting time (prothrombin time) [4]: caused an inhibition to the formation of prothrombin
increased rate of clearance of the CMV injectate relative to PC [5]: 1.7 fold
Lipoprotein Surface Charge LDL ([6]; 5 mg/ml): 2.9 -mV
Lipoprotein Surface Charge VLDL ([6]; 5 mg/ml): 6.3 -mV
Lipoprotein Surface Charge HDL ([6]; 5 mg/ml): 12.4 -mV
Lipoprotein Surface Charge LDL ([6]; 10 mg/ml): 3.3 -mV
Lipoprotein Surface Charge VLDL ([6]; 10 mg/ml): 6.8 -mV
Lipoprotein Surface Charge HDL ([6]; 10 mg/ml): 12.8 -mV
Lipoprotein Surface Charge LDL ([6]; 50 mg/ml): 3.4 -mV
Lipoprotein Surface Charge VLDL ([6]; 50 mg/ml): 6.9 -mV
Lipoprotein Surface Charge HDL ([6]; 50 mg/ml): 13.2 -mV
Lipoprotein Surface Charge LDL ([6]; 100 mg/ml): 3.6 -mV
Lipoprotein Surface Charge VLDL ([6]; 100 mg/ml): 7.1 -mV
Lipoprotein Surface Charge HDL ([6]; 100 mg/ml): 13.4 -mV
